{"source": "paper PMC9377007", "about": "“An Unexpected Deuterium-Induced Metabolic Switch in Doxophylline” (ACS Medicinal Chemistry Letters, 2022)", "key": {"[1]": {"assay": "Comparative pharmacokinetic study, single-dose administration in mice", "type": "in vivo", "conditions": "for AUC(0-t) / Cmax at 24 h / clearance at 24 h / half-life at 24 h / CL/F at 24 h: male, CD1, mouse, plasma, single dose; for decrease of the area under the curve (AUC) versus doxophylline: oral administration", "protocol": "(§1) A comparative pharmacokinetic study was then performed by evaluating the plasma concentration profiles of doxophylline and its deuterated analogues after intravenous and oral single-dose administration in mice and minipigs. […] Since the deuterium kinetic isotope effect is often affected by interspecies variability,[28] a PK study was also performed in minipigs. […] A total of 96 CD1 male mice, approximately 6 weeks old and with a body weight of approximately 30 g, were purchased from Envigo RMS srl, (San Pietro al Natisone, UD, Italy). Four males Göttingen minipigs approximately 4-5 months old and weighing 9-11 Kg were purchased from Ellegaard Göttingen Minipigs (Dalmose, Denmark). Protocol for drug administration and blood sampling. Mice. Blood samples were collected under light isoflurane anaesthesia from the sublingual vein at the following time points (n=3): pre-dose and 5, 15, 30 minutes, 1, 2, 4, 8 and 24 hours after i.v. dosing (20 mg/Kg, dose volume 5 mL/Kg) and pre-dose and 15, 30 minutes, 1, 2, 4, 8 and 24 hours after oral gavage dosing (80 mg/Kg, dose volume 5 mL/Kg). Each animal was sampled on each day at a maximum of two alternating time points. Samples were transferred into tubes containing K3EDTA as anticoagulant, centrifuged, and stored at -80 °C. Minipig. Blood samples were collected from the jugular vein at the following time points (n=4): pre-dose and 5, 15, 30 minutes, 1, 2, 4, 8 and 24 hours after i.v. dosing (5 mg/Kg, dose volume 1 mL/Kg) and pre-dose and 15, 30 minutes, 1, 2, 4, 8 and 24 hours after oral gavage dosing (20 mg/Kg, dose volume 4 mL/Kg). Samples were transferred into tubes containing K3EDTA as anticoagulant, centrifuged, and stored at -80 °C. Sample preparation for HPLC-MS analysis. A volume of 50 µL of caffeine solution (1 mg/L in water-methanol 1:1) were added to plasma sample aliquots (50 µL); after the addition of the precipitant solution (100 µL of 10% ice-cold trichloroacetic acid in water), samples were centrifuged at 13,000 rpm for ten minutes and the supernatant injected onto the HPLC system (see supporting information for chromatographic conditions). If the levels of analytes were over range, plasma samples were preventively diluted with blank plasma. Data analysis. Quantification of doxophylline and its deuterated analogues d4 and d7 as well as their main metabolites, 7- theophylline acetic acid (T-COOH), 7-hydroxyethyl theophylline (Eto) and theophylline, was performed by using the calibration curves obtained with the corresponding working standards of the analytes and using caffeine as internal standard. The pharmacokinetic parameters for doxophylline and its deuterated analogues were calculated by plotting the plasma concentration curves versus time obtained from the average values of three animals, using PK Solver 2.0.1 S7"}, "[2]": {"assay": "Comparative pharmacokinetic study, single-dose administration in minipigs", "type": "in vivo", "conditions": "male, Göttingen, minipig, plasma", "protocol": "as §1"}}}
{"smiles": "[2H]C1([2H])OC([2H])(C([2H])([2H])n2cnc3c2c(=O)n(C)c(=O)n3C)OC1([2H])[2H]", "note": "[d7-doxophylline]", "values": [{"measurement": "AUC(0-t)", "setting": "[1]; intravenous, 20 mg/kg", "value": 4920, "unit": "ng·h/mL"}, {"measurement": "Cmax at 24 h", "setting": "[1]; intravenous, 20 mg/kg", "value": 10700, "unit": "ng/mL"}, {"measurement": "clearance at 24 h", "setting": "[1]; intravenous, 20 mg/kg", "value": 68.3, "unit": "mL/min/kg"}, {"measurement": "half-life at 24 h", "setting": "[1]; intravenous, 20 mg/kg", "value": 1, "unit": "h"}, {"measurement": "AUC(0-t)", "setting": "[1]; oral, 80 mg/kg", "value": 33600, "unit": "ng·h/mL"}, {"measurement": "CL/F at 24 h", "setting": "[1]; oral, 80 mg/kg", "value": 40, "unit": "mL/min/kg"}, {"measurement": "Cmax at 24 h", "setting": "[1]; oral, 80 mg/kg", "value": 19200, "unit": "ng/mL"}, {"measurement": "half-life at 24 h", "setting": "[1]; oral, 80 mg/kg", "value": 2.1, "unit": "h"}, {"measurement": "decrease of the area under the curve (AUC) versus doxophylline", "setting": "[1]", "value": 40, "unit": "%"}, {"measurement": "AUC(0-t)", "setting": "[2]; intravenous, 5 mg/kg", "value": 47000, "unit": "ng·h/mL"}, {"measurement": "Cmax", "setting": "[2]; intravenous, 5 mg/kg", "value": 8260, "unit": "ng/mL"}, {"measurement": "clearance", "setting": "[2]; intravenous, 5 mg/kg", "value": 1.67, "unit": "mL/min/kg"}, {"measurement": "half-life", "setting": "[2]; intravenous, 5 mg/kg", "value": 6.5, "unit": "h"}, {"measurement": "AUC(0-t)", "setting": "[2]; oral, 20 mg/kg", "value": 222000, "unit": "ng·h/mL"}, {"measurement": "CL/F", "setting": "[2]; oral, 20 mg/kg", "value": 1.17, "unit": "mL/min/kg"}, {"measurement": "Cmax", "setting": "[2]; oral, 20 mg/kg", "value": 13000, "unit": "ng/mL"}, {"measurement": "half-life", "setting": "[2]; oral, 20 mg/kg", "value": 12.6, "unit": "h"}]}
{"smiles": "Cn1c(=O)c2c(ncn2CC2OCCO2)n(C)c1=O", "note": "[doxophylline]", "values": [{"measurement": "AUC(0-t)", "setting": "[1]; intravenous, 20 mg/kg", "value": 6730, "unit": "ng·h/mL"}, {"measurement": "Cmax at 24 h", "setting": "[1]; intravenous, 20 mg/kg", "value": 15500, "unit": "ng/mL"}, {"measurement": "clearance at 24 h", "setting": "[1]; intravenous, 20 mg/kg", "value": 48.3, "unit": "mL/min/kg"}, {"measurement": "half-life at 24 h", "setting": "[1]; intravenous, 20 mg/kg", "value": 1.1, "unit": "h"}, {"measurement": "AUC(0-t)", "setting": "[1]; oral, 80 mg/kg", "value": 55900, "unit": "ng·h/mL"}, {"measurement": "CL/F at 24 h", "setting": "[1]; oral, 80 mg/kg", "value": 23.3, "unit": "mL/min/kg"}, {"measurement": "Cmax at 24 h", "setting": "[1]; oral, 80 mg/kg", "value": 18700, "unit": "ng/mL"}, {"measurement": "half-life at 24 h", "setting": "[1]; oral, 80 mg/kg", "value": 1.6, "unit": "h"}, {"measurement": "AUC(0-t)", "setting": "[2]; intravenous, 5 mg/kg", "value": 47700, "unit": "ng·h/mL"}, {"measurement": "Cmax", "setting": "[2]; intravenous, 5 mg/kg", "value": 7500, "unit": "ng/mL"}, {"measurement": "clearance", "setting": "[2]; intravenous, 5 mg/kg", "value": 1.67, "unit": "mL/min/kg"}, {"measurement": "half-life", "setting": "[2]; intravenous, 5 mg/kg", "value": 6.2, "unit": "h"}, {"measurement": "AUC(0-t)", "setting": "[2]; oral, 20 mg/kg", "value": 217000, "unit": "ng·h/mL"}, {"measurement": "CL/F", "setting": "[2]; oral, 20 mg/kg", "value": 1.17, "unit": "mL/min/kg"}, {"measurement": "Cmax", "setting": "[2]; oral, 20 mg/kg", "value": 14000, "unit": "ng/mL"}, {"measurement": "half-life", "setting": "[2]; oral, 20 mg/kg", "value": 11, "unit": "h"}]}
{"smiles": "[2H]C1([2H])OC(Cn2cnc3c2c(=O)n(C)c(=O)n3C)OC1([2H])[2H]", "note": "[d4-doxophylline]", "values": [{"measurement": "AUC(0-t)", "setting": "[1]; intravenous, 20 mg/kg", "value": 5410, "unit": "ng·h/mL"}, {"measurement": "Cmax at 24 h", "setting": "[1]; intravenous, 20 mg/kg", "value": 12300, "unit": "ng/mL"}, {"measurement": "clearance at 24 h", "setting": "[1]; intravenous, 20 mg/kg", "value": 61.7, "unit": "mL/min/kg"}, {"measurement": "half-life at 24 h", "setting": "[1]; intravenous, 20 mg/kg", "value": 1.5, "unit": "h"}, {"measurement": "AUC(0-t)", "setting": "[1]; oral, 80 mg/kg", "value": 31400, "unit": "ng·h/mL"}, {"measurement": "CL/F at 24 h", "setting": "[1]; oral, 80 mg/kg", "value": 41.7, "unit": "mL/min/kg"}, {"measurement": "Cmax at 24 h", "setting": "[1]; oral, 80 mg/kg", "value": 16800, "unit": "ng/mL"}, {"measurement": "half-life at 24 h", "setting": "[1]; oral, 80 mg/kg", "value": 1.7, "unit": "h"}, {"measurement": "decrease of the area under the curve (AUC) versus doxophylline", "setting": "[1]", "value": 44, "unit": "%"}, {"measurement": "AUC(0-t)", "setting": "[2]; intravenous, 5 mg/kg", "value": 49200, "unit": "ng·h/mL"}, {"measurement": "Cmax", "setting": "[2]; intravenous, 5 mg/kg", "value": 7420, "unit": "ng/mL"}, {"measurement": "clearance", "setting": "[2]; intravenous, 5 mg/kg", "value": 1.67, "unit": "mL/min/kg"}, {"measurement": "half-life", "setting": "[2]; intravenous, 5 mg/kg", "value": 6.2, "unit": "h"}, {"measurement": "AUC(0-t)", "setting": "[2]; oral, 20 mg/kg", "value": 236000, "unit": "ng·h/mL"}, {"measurement": "CL/F", "setting": "[2]; oral, 20 mg/kg", "value": 1.17, "unit": "mL/min/kg"}, {"measurement": "Cmax", "setting": "[2]; oral, 20 mg/kg", "value": 15800, "unit": "ng/mL"}, {"measurement": "half-life", "setting": "[2]; oral, 20 mg/kg", "value": 10.8, "unit": "h"}]}
